In general, IC50 refers to the concentration that inhibits the measured activity by half.

In US9199965B2, “Benzoimidazole derivatives and pharmaceutical composition comprising the same” (Daewoong Co., Ltd., priority 2005, dated 2015) one finds IC50 data, which are given here for 31 compounds.

The structures appear in SMILES notation.

For the experiment, the target named is T1, human vanilloid-1 (hVR1) (Homo sapiens, UniProt Q8NER1).
T1 construct: expressed in transfected cells; host or cells: HEK293 Tet-on (hVR1-HEK293), doxycycline-induced
T1 sequence (Q8NER1 whole entry): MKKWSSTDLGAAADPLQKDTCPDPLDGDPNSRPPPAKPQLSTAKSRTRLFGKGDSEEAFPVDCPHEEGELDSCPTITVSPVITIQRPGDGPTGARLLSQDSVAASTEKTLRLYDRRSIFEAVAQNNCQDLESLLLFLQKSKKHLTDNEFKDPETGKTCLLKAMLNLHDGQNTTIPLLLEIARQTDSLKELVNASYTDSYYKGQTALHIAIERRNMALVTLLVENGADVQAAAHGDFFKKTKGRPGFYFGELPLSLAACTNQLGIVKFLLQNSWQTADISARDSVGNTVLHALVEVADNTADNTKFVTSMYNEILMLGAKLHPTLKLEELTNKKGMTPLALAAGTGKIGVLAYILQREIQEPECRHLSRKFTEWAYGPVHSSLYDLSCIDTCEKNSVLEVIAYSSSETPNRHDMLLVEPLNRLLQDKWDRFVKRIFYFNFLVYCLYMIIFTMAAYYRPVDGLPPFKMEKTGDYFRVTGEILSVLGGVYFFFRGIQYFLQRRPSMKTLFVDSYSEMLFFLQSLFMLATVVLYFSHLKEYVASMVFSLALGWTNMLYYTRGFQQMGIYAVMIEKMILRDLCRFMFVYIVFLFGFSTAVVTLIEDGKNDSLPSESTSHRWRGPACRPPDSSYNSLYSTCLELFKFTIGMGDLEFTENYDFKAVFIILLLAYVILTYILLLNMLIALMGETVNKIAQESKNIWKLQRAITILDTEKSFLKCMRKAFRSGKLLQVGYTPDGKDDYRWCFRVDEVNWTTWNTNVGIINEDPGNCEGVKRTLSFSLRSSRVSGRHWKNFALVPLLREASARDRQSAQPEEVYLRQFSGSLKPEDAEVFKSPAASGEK
As to the kind of experiment: Calcium influx of vanilloid receptor in hVR1-HEK293 cells (capsaicin-induced, Fluo-3/AM). To be noted: 1 μM capsaicin-induced intracellular calcium influx, read-out: Inhibitory Activity IC50. It counts as cell-based. As for the experimental part:
Experiments for calcium influx were performed to measure the activity of the compounds as antagonists.
The cell strain hVR1-HEK293 is the human embryonic kidney (HEK) 293 Tet-on cell transfected with a human vanilloid-1 gene (pTRE2hyg-hVR1, 7.8 kb), which is capable of controlling the expression of VR1 according to the administration of deoxycycline, a tetracycline derivative analog. In a medium supplemented with deoxycycline two days before calcium influx experiments, the cell strain was cultured to induce the expression of VR1. After being grown to a confluency of about 80% in T75 flasks, hVR1-HEK293 was detached from the flask using trypsin. Cells harvested by centrifugation were suspended in a medium supplemented with 1 μg/mL of deoxycycline and diluted to a density of 2-4×10^5 cells/mL, after which a 100 μL aliquot of the cell suspension was added to each well of 96 well black plates. Before the measurement of calcium influx, the cells were incubated for two days at 37° C. in a 5% CO2 incubator.
For use in calcium influx experiments, each compound was dissolved in dimethyl sulfoxide (DMSO).
To measure an intracellular calcium influx, cells were incubated at 37° C. for 90 min in a medium containing the calcium indicator Fluo-3/AM so as to allow the fluorescent dye to penetrate into the cells. Then, the cells were washed three times with D-PBS (Dulbecco's phosphate buffered saline) containing 10 mM HEPES to remove the fluorescent dye which remained outside. 193 μL aliquot of D-PBS was added to each well, followed by the addition of various concentrations of compounds thereto. In order to measure the antagonistic activity of the compounds, calcium influx was induced by treatment with 1 μM capsaicin. The inhibitory effect of each compound on 1 μM capsaicin-induced intracellular calcium influx according to compound concentration was measured using a fluorescent analyzer and the data thus obtained were analyzed on the basis of the Hill's equation.
On the technique in general: Calcium flux is commonly read through the fluorescence of an indicator in the cells.
Consider `FC(F)(F)c1cc(Br)c2nc(-c3ccc(-c4ncccc4Cl)cc3)[nH]c2c1` [Compound 14, 4-bromo-2-(4-(3-chloropyridin-2-yl)phenyl)-6-(trifluoromethyl)-1H-benzoimidazole], for which the concentration for half-maximal inhibition (IC50) was 0.168 µM. Take `Clc1cccnc1-c1ccc(-c2nc3ccc(Br)cc3[nH]2)nc1` [Compound 141, 6-bromo-2-(5-(3-chloropyridin-2-yl)pyridin-2-yl)-1H-benzoimidazole]: the IC50 is 2.4 µM. Consider `CC(C)(C)c1ccc2nc(-c3ccc(-c4cccc5ccccc45)nc3)[nH]c2c1` [Compound 174, 6-tert-butyl-2-(6-naphthalen-1-ylpyridin-3-yl)-1H-benzoimidazole], for which the half-maximal inhibitory concentration (IC50) was determined as 0.282 µM. The same measure for `FC(F)(F)c1ccc2nc(-c3ccc(-c4ccccn4)cc3)[nH]c2c1` [Compound 48, 6-(trifluoromethyl)-2-(4-(pyridin-2-yl)phenyl)-1H-benzoimidazole]: 0.16 µM; for `Brc1cnc2nc(-c3ccc(-c4ccccn4)cc3)[nH]c2c1` [Compound 53, 6-bromo-2-(4-(pyridin-2-yl)phenyl)-1H-imidazo[4,5-b]pyridine]: 0.145 µM. Turning to `FC(F)(F)c1ccc2nc(-c3ccc(-c4ncccc4Cl)cn3)[nH]c2c1` [Compound 136, 3-chloro-6′-(6-trifluoromethyl-1H-benzoimidazole-2-yl)-[2,3′]bipyridine], the IC50 was 0.952 µM. The figure for `FC(F)(F)c1cc(Cl)c2nc(-c3ccc(-c4ccccn4)cc3)[nH]c2c1` [Compound 49, 4-chloro-6-(trifluoromethyl)-2-(4-(pyridin-2-yl)phenyl)-1H-benzoimidazole] is 0.284 µM; for `N#Cc1cccnc1-c1ccc(-c2nc3ccc(C(F)(F)F)cc3[nH]2)cc1` [Compound 59, 2-(4-(6-(trifluoromethyl)-1H-benzoimidazole-2-yl)phenyl)pyridin-3-carbonitrile] it is 0.296 µM. The same measure for `FC(F)(F)c1cc(C(F)(F)F)c2nc(-c3ccc(-c4ncccc4Cl)c4ccccc34)[nH]c2c1` [Compound 106, 2-[4-(3-chloropyridin-2-yl)naphthalen-1-yl]-4,6-bistrifluoromethyl-1H-benzoimidazole]: 0.275 µM.

Regarding `CC(C)(C)c1ccc2nc(-c3ccc(-c4ccccn4)cc3)[nH]c2c1` [Compound 47, 6-tert-butyl-2-(4-pyridin-2-ylphenyl)-1H-benzoimidazole], the IC50 stood at 0.082 µM. The same measure for `FC(F)(F)c1cc(Br)c2nc(-c3ccc(-c4nccc(C(F)(F)F)n4)cc3)[nH]c2c1` [Compound 56, 4-bromo-6-(trifluoromethyl)-2-(4-(4-(trifluoromethyl)pyrimidin-2-yl)phenyl)-1H-benzoimidazole]: 0.022 µM. With `Clc1cc(-c2nc3ccc(Br)cc3[nH]2)ccc1-c1ccccn1` [Compound 130, 6-bromo-2-(3-chloro-4-(pyridin-2-yl)phenyl)-1H-benzoimidazole], the half-inhibitory concentration (IC50) stood at 0.436 µM. With `Clc1cccnc1-c1ccc(-c2nc3ccc(Br)cc3[nH]2)cc1` [Compound 13, 6-bromo-2-(4-(3-chloropyridin-2-yl)phenyl)-1H-benzoimidazole], the IC50 is 0.289 µM. In the case of `CC(C)(C)c1ccc2nc(-c3ccc(-c4ncccc4C#N)cc3)[nH]c2c1` [Compound 60], the IC50 amounted to 0.15 µM. Regarding `Fc1ccc2nc(-c3ccc(-c4ccccn4)cc3)[nH]c2c1` [Compound 52, 6-fluoro-2-(4-(pyridin-2-yl)phenyl)-1H-benzoimidazole], the IC50 was found to be 1.4 µM. The same measure for `Clc1cc2nc(-c3ccc(-c4ccccn4)c(Cl)c3)[nH]c2cc1Cl` [Compound 129, 5,6-dichloro-2-(3-chloro-4-(pyridin-2-yl)phenyl)-1H-benzoimidazole]: 3.96 µM; for `Clc1cc2nc(-c3ccc(-c4ccccn4)cn3)[nH]c2cc1Cl` [Compound 173, 5,6-dichloro-2-(5-(pyridin-2-yl)pyridin-2-yl)-1H-benzoimidazole]: 0.046 µM; for `CC(C)(C)c1ccc2nc(-c3ccc(-c4ncccc4C(F)(F)F)cn3)[nH]c2c1` [Compound 159, 6′-(6-tert-butyl-1H-benzoimidazole-2-yl)-3-trifluoromethyl-[2,3′]bipyridine]: 3.95 µM. Consider `FC(F)(F)c1cccnc1-c1ccc(-c2nc3cc(Cl)c(Cl)cc3[nH]2)cc1` [Compound 35, 5,6-dichloro-2-[4-(3-trifluoromethylpyridin-2-yl)phenyl]-1H-benzoimidazole], for which the IC50 stood at 0.039 µM. Turning to `FC(F)(F)c1cc(C(F)(F)F)c2nc(-c3ccc(-c4ccccn4)cc3)[nH]c2c1` [Compound 51, 4,6-bis(trifluoromethyl)-2-(4-(pyridin-2-yl)phenyl)-1H-benzoimidazole], the IC50 amounted to 0.246 µM. Turning to `Clc1ccc2nc(-c3ccc(-c4ncccc4Cl)cn3)[nH]c2c1` [Compound 137, 3-chloro-6′-(6-chloro-1H-benzoimidazole-2-yl)-[2,3′]bipyridine], the IC50 was found to be 0.569 µM. Consider `FC(F)(F)c1ccc2nc(-c3cccc(Cn4cc(Cl)cn4)c3)[nH]c2c1` [Compound 195, 2-[3-(4-chloropyrazol-1-ylmethyl)phenyl]-6-trifluoromethyl-1H-benzoimidazole], for which the concentration for half-maximal inhibition (IC50) came out at 1.4 µM. Consider `FC(F)(F)c1ccc2nc(-c3ccc(-c4ncccc4C(F)(F)F)c4ccccc34)[nH]c2c1` [Compound 113, 6-trifluoromethyl-2-[4-(3-trifluoromethylpyridin-2-yl)naphthalen-1-yl]-1H-benzoimidazole], for which the IC50 came to 0.363 µM. For `FC(F)(F)c1ccc2nc(-c3ccc(-c4cccc5ccccc45)nc3)[nH]c2c1` [Compound 176, 6-(trifluoromethyl)-2-(6-(naphthalen-1-yl)pyridin-3-yl)-1H-benzoimidazole], the IC50 was 0.229 µM. As for `Clc1cc2nc(-c3ccc(-c4ccccn4)cc3)[nH]c2cc1Cl` [Compound 50, 5,6-dichloro-2-(4-(pyridin-2-yl)phenyl)-1H-benzoimidazole], the IC50 is 0.292 µM. Consider `FC(F)(F)c1cccnc1-c1ccc(-c2nc3ncc(Br)cc3[nH]2)cc1` [Compound 39], for which the IC50 came out at 0.019 µM. `Fc1ccc2nc(-c3ccc(-c4ncccc4C(F)(F)F)cn3)[nH]c2c1` [Compound 166, 6-fluoro-2-(5-(3-(trifluoromethyl)pyridin-2-yl)pyridin-2-yl)-1H-benzoimidazole]: the half-inhibitory concentration (IC50) is 3.9 µM. The figure for `Clc1ccc2nc(-c3ccc(-c4cccc5ccccc45)nc3)[nH]c2c1` [Compound 177, 6-chloro-2-(6-(naphthalen-1-yl)pyridin-3-yl)-1H-benzoimidazole] is 0.151 µM; for `CC(C)(C)c1ccc2nc(-c3ccc(-c4ccccn4)cc3F)[nH]c2c1` [Compound 82, 6-tert-butyl-2-(2-fluoro-4-pyridin-2-yl)phenyl-1H-benzoimidazole] it is 0.263 µM; for `FC(F)(F)c1cccnc1-c1ccc(-c2nc3ccc(Cl)cc3[nH]2)nc1` [Compound 160, 6′-(6-chloro-1H-benzoimidazole-2-yl)-3-trifluoromethyl-[2,3′]bipyridine] it is 0.258 µM. On to `FC(F)(F)c1ccc2nc(-c3ccc(-c4ncccc4C(F)(F)F)cc3Cl)[nH]c2c1` [Compound 97, 2-[2-chloro-4-(3-trifluoromethylpyridin-2-yl)phenyl]-6-trifluoromethyl-1H-benzoimidazole], for which the IC50 is 0.644 µM.
